# From patent publication US12465613B2, “Pharmaceutical composition for use in the prophylactic and/or therapeutic treatment of L-DOPA-induced dyskinesia” (UNIVERSIDADE DE SANTIAGO DE COMPOSTELA, priority 2019, dated 2025)
# Entries after “also recorded” stand apart in the source; their conditions may differ.
# Tests used:
# Type in all cases: in vivo, rats of the Sprague-Dawley strain
# ROCK = ROCK expression and activity in striatum and substantia nigra of dyskinetic animals (Western blot, real-time PCR; Example 1)
# RhoA = RhoA expression in striatum and substantia nigra of dyskinetic animals (Western blot, real-time PCR; Example 1)
# [1] = tested on: rats with unilateral lesion with 6-OHDA, established dyskinesias induced by L-DOPA; test: AIMs in animals with already established dyskinesias (L-DOPA 3 weeks, then L-DOPA and fasudil; Example 4)
# [2] = tested on: rats with unilateral lesion with 6-OHDA; test: Rotational behavior induced by L-DOPA (Example 3); details: different doses of fasudil (10, 30, 40 mg/kg)
# [3] = tested on: rats injected with 6-OHDA, dyskinesias induced by L-DOPA; test: Abnormal involuntary movements (AIMs) when fasudil is co-administered from before and during chronic L-DOPA treatment (Example 2)
# [4] = L-DOPA 6 mg/kg and 12 mg/kg, normalized to 6-OHDA animals treated with saline, p<0.05
# [5] = daily L-DOPA 6 or 12 mg/kg, 3-4 weeks, increase greater with the higher dose
# [6] = fasudil 10 mg/kg/day i.p., L-DOPA 6 mg/kg, 3 weeks, relative to L-DOPA only
# [7] = fasudil 30 mg/kg i.p., chronic L-DOPA
compound,measurement,setting,value
N[C@@H](Cc1ccc(O)c(O)c1)C(=O)O [L-DOPA],ROCK activity in the substantia nigra,"ROCK; L-DOPA 6 mg/kg and 12 mg/kg, normalized to 6-OHDA animals treated with saline",significant increase
same,ROCK protein expression in the substantia nigra,ROCK; [4],significant increase
same,ROCK protein expression in the striatum,ROCK; L-DOPA 6 and 12 mg/kg,only significant with the high dose
same,levels of the ROCK protein in dyskinetic animals,ROCK; [5],significant increase
same,RhoA protein expression in the substantia nigra,RhoA; [4],significant increase
same,RhoA protein expression in the striatum,RhoA; L-DOPA 6 and 12 mg/kg,only significant with the high dose
same,levels of the RhoA protein in dyskinetic animals,RhoA; [5],significant increase
O=S(=O)(c1cccc2cnccc12)N1CCCNCC1 [fasudil],effect on established dyskinetic movements,"[1]; FIG. 4B, fasudil 30 and 40 mg/kg, even with L-DOPA 24 mg/kg, p<0.05",significant reduction
same,"reduction in established dyskinesias, severe dyskinesia","[1]; L-DOPA increased to 24 mg/kg, maintained up to the end of the treatment",approximately 50%
same,effect on established dyskinetic movements,"[1]; fasudil 10 mg/kg/day, up to 7 days of treatment, after 3 weeks of L-DOPA",did not have any effect; also recorded: no improvement
same,day of treatment from which the reduction in established dyskinesias was seen,[1]; fasudil 40 mg/kg/day,third
same,reduction in established dyskinesias,"[1]; fasudil 40 mg/kg/day, after 3 weeks of L-DOPA",about 45%
same,dyskinesias reduced to (already dyskinetic animals),"[1]; fasudil 40 mg/kg, animals treated with L-DOPA for 3-4 weeks, summary statement",~50%
same,rotations induced by L-DOPA (rotational behavior),[2],unaffected; also recorded: no differences were observed
same,"abnormal involuntary movements (AIMs), total score and separate components (extremity, axial, orolingual)","[3]; FIG. 2, fasudil 10 mg/kg and 30-40 mg, chronic L-DOPA 23 and 32 days, p<0.05",statistically significant reduction
same,reduction in dyskinesia in conditions of severe dyskinesia,"[3]; L-DOPA dose increased to 24 mg/kg at the end of the treatment, fasudil dose not stated",approximately 50%
same,axial reduction in dyskinesias,[3]; [6],~35%
same,orolingual reduction in dyskinesias,[3]; [6],~30%
same,reduction in dyskinesias in the extremities,"[3]; fasudil 10 mg/kg/day i.p., from 5 days before and 30 min before each L-DOPA 6 mg/kg, 3 weeks, relative to L-DOPA only",~25%
same,axial reduction in dyskinesias,[3]; [7],60%
same,extremity reduction in dyskinesias,[3]; [7],60%
same,orolingual reduction in dyskinesias,[3]; [7],70%
same,reduction in dyskinesia,"[3]; fasudil 40 mg/kg i.p., chronic L-DOPA",70%
